Measured values reported in patent publication EP4678638A1, “NEW E3 UBIQUITIN LIGASE LIGAND, PROTEIN DEGRADATION AGENT AND USE THEREOF” (priority 2023, dated 2024).
Where two headings read alike, the source gives them in different places.

Tests used:
H2228 = experiment: CCK-8 proliferation, NCI-H2228 (H2228); assay type: cell-based; conditions: Homo sapiens, NCI-H2228; Table B6, compounds designed based on the ALK inhibitors; H2228 cells; read-out: Inhibitory activity (IC50, nM) on tumor cell proliferation, H2228
Procedure, shortened: (§1)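 CCK-8 viability readout; IC50 from growth-inhibition curve fitting. Cells plated, dosed 24h later with a 10-point series, top 10µM, 5-fold steps. Culture at 37°C, 5% CO2.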

H1975 = experiment: CCK-8 proliferation, NCI-H1975 (H1975); assay type: cell-based, Human; conditions: Homo sapiens, NCI-H1975; Table B6, compounds designed based on the ALK inhibitors; H1975 cells; read-out: Inhibitory activity (IC50, nM) on tumor cell proliferation, H1975
Procedure, shortened: as §1

SR = experiment: CCK-8 proliferation, SR; assay type: cell-based, Human; conditions: Homo sapiens; Table B6, compounds designed based on the ALK inhibitors; SR cells; read-out: Inhibitory activity (IC50, nM) on tumor cell proliferation, SR
Procedure, shortened: as §1

MM.1S = experiment: CCK-8 proliferation, MM.1S; assay type: cell-based; conditions: Homo sapiens, MM1.S; Table B6, compounds designed based on the ALK inhibitors; MM.1S cells; read-out: Inhibitory activity (IC50, nM) on tumor cell proliferation, MM.1S
Procedure, shortened: as §1

MDA-MB-231 = experiment: CCK-8 proliferation, MDA-MB-231; assay type: cell-based; conditions: Homo sapiens
Procedure, shortened: as §1

[1] = target: T1, human Cereblon WT GST-tagged protein (Homo sapiens, UniProt Q96SW2); experiment: CRBN binding, HTRF (CEREBLON BINDING kit); conditions: Table II-2, CRBN binding screening, HTRF; for inhibition at 0.5 µM: read-out: Inhibition rate (%) at 0.5µM; for inhibition at 2 µM: read-out: Inhibition rate (%) at 2 µM
T1 construct: purchased CISBIO 64BDCRBNPEH
Procedure, shortened: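 After 3 h at room temperature, emission at 665 and 620 nm was measured in a homogeneous time-resolved fluorescence format. Compounds competed with a Thalidomide-Re probe for GST-tagged wild-type human CRBN, which was labelled with a Eu anti-GST antibody.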

ALK = target: T2, ALK (Homo sapiens, UniProt Q96SW2+Q9HC35+Q9UM73); experiment: Western blot degradation of ALK (H2228 Cell); assay type: cell-based; conditions: Table D5
T2 construct: evaluate the effects of the compounds of the present disclosure on the expression of target proteins in cells; endogenous in cells; host or cells: H2228
Procedure, shortened: (§2)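 Degradation is assessed by immunoblotting lysates of treated cells. Target bands are quantified by grayscale and normalised to an internal control, so degradation rate equals 100% minus % remaining.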

MCF7 = experiment: CCK-8 proliferation, MCF7 (MCF-7); assay type: cell-based; conditions: Homo sapiens, MCF7
Procedure, shortened: as §1

WEE1 = target: T3, WEE1 (Homo sapiens, UniProt P30291+Q96SW2); experiment: Western blot degradation of WEE1 (hPBMC); assay type: cell-based; conditions: Table D16
T3 construct: evaluate the effects of the compounds of the present disclosure on the expression of target proteins in cells; endogenous in cells; host or cells: hPBMC
Procedure, shortened: as §2

IKZF1 = target: T4, IKZF1 (Homo sapiens, UniProt Q13422+Q96SW2); experiment: Western blot degradation of IKZF1 (hPBMC); assay type: cell-based; conditions: Table D16
T4 construct: evaluate the effects of the compounds of the present disclosure on the expression of target proteins in cells; endogenous in cells; host or cells: hPBMC
Procedure, shortened: as §2

IKZF2 = target: T5, IKZF2 (Homo sapiens, UniProt Q96SW2+Q9UKS7); experiment: Western blot degradation of IKZF2 (hPBMC); assay type: cell-based; conditions: Table D16
T5 construct: evaluate the effects of the compounds of the present disclosure on the expression of target proteins in cells; endogenous in cells; host or cells: hPBMC
Procedure, shortened: as §2

IKZF3 = target: T6, IKZF3 (Homo sapiens, UniProt Q96SW2+Q9UKT9); experiment: Western blot degradation of IKZF3 (hPBMC); assay type: cell-based; conditions: Table D16
T6 construct: evaluate the effects of the compounds of the present disclosure on the expression of target proteins in cells; endogenous in cells; host or cells: hPBMC
Procedure, shortened: as §2

CK1a = target: T7, CK1a (Homo sapiens, UniProt P48729+Q96SW2); experiment: Western blot degradation of CK1a (hPBMC); assay type: cell-based; conditions: Table D16
T7 construct: evaluate the effects of the compounds of the present disclosure on the expression of target proteins in cells; endogenous in cells; host or cells: hPBMC
Procedure, shortened: as §2

GSPT1 = target: T8, GSPT1 (Homo sapiens, UniProt P15170+Q96SW2); experiment: Western blot degradation of GSPT1 (hPBMC); assay type: cell-based; conditions: Table D16
T8 construct: evaluate the effects of the compounds of the present disclosure on the expression of target proteins in cells; endogenous in cells; host or cells: hPBMC
Procedure, shortened: as §2

[2] = Table B6, compounds designed based on the ALK inhibitors, MDA-MB-231 cells, read-out: Inhibitory activity (IC50, nM) on tumor cell proliferation, MDA-MB-231
[3] = CCK-8, read-out: Inhibitory activity (IC50) on tumor cell proliferation, MCF-7
[4] = MDA-MB-231, CCK-8, 96 hours, read-out: Inhibitory activity (IC50) on tumor cell proliferation, MDA-MB-231
[5] = Table B6, compounds designed based on the ALK inhibitors, MCF-7 cells, read-out: Inhibitory activity (IC50, nM) on tumor cell proliferation, MCF-7

T8 sequence (P15170 whole entry): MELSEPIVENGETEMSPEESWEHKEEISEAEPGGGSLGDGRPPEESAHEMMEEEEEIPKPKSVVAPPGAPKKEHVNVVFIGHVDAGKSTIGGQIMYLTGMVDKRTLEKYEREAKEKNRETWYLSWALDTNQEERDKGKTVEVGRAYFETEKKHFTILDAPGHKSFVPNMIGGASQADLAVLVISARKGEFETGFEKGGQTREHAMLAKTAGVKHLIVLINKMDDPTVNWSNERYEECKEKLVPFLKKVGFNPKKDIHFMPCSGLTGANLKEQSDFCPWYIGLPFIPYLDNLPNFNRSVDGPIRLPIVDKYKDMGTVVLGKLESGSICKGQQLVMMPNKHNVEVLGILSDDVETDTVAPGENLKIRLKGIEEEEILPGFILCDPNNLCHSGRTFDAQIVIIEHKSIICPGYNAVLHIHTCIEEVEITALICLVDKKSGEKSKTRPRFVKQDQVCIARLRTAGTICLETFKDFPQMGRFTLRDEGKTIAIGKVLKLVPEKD
T8 sequence (Q96SW2 whole entry): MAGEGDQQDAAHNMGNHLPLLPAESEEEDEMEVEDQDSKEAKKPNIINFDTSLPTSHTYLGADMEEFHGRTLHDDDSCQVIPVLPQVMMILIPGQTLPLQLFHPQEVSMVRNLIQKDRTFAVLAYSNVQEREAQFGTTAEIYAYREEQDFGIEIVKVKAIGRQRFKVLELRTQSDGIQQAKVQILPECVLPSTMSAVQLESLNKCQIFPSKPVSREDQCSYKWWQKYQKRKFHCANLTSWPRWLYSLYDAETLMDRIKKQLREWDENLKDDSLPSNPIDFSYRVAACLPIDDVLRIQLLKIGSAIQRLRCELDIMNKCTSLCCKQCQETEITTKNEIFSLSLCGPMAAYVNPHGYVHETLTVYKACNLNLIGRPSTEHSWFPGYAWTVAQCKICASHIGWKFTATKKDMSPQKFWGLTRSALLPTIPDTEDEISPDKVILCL
T8 sequence (Q16531 whole entry partner): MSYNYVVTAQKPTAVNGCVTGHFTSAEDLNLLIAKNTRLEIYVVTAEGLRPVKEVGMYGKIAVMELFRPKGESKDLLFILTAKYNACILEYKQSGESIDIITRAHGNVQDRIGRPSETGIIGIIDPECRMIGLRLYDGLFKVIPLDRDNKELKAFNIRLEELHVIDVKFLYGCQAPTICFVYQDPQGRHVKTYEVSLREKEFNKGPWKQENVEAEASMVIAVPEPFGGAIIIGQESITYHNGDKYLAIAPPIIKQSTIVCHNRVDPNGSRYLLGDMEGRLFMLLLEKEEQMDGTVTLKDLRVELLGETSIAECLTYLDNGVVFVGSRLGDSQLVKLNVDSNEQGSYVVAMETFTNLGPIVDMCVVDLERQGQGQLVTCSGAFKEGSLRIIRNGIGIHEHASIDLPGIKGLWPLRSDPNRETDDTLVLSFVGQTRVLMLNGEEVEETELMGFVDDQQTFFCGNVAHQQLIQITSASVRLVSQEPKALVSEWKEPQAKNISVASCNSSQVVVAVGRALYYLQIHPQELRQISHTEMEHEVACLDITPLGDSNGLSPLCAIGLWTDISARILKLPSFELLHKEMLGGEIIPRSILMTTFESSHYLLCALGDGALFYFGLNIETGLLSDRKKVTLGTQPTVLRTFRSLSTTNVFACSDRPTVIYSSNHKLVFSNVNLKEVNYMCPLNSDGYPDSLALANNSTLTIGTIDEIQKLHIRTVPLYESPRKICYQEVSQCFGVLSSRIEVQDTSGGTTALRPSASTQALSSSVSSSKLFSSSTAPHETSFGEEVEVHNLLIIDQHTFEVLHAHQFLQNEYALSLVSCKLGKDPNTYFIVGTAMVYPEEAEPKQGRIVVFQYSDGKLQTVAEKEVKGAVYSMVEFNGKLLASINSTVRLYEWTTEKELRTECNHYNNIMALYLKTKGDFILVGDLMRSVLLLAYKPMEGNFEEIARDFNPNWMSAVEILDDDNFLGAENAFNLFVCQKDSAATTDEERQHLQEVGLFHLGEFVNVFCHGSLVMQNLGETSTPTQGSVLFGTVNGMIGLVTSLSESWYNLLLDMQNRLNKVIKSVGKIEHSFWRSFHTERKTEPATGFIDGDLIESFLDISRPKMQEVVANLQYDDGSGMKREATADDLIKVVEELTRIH
T7 sequence (P48729 whole entry): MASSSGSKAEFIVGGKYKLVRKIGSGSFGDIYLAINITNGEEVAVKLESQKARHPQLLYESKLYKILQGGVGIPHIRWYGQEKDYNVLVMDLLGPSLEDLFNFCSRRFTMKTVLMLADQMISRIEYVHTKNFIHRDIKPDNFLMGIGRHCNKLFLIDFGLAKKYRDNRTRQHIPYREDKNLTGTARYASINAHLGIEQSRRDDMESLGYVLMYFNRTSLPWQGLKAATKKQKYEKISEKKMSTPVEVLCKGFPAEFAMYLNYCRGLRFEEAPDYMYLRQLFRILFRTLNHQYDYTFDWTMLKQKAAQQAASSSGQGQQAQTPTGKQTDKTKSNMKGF
T7 sequence (Q96SW2 whole entry): as the sequence (Q96SW2 whole entry) above
T7 sequence (Q16531 whole entry partner): as the sequence (Q16531 whole entry partner) above
T3 sequence (P30291 whole entry): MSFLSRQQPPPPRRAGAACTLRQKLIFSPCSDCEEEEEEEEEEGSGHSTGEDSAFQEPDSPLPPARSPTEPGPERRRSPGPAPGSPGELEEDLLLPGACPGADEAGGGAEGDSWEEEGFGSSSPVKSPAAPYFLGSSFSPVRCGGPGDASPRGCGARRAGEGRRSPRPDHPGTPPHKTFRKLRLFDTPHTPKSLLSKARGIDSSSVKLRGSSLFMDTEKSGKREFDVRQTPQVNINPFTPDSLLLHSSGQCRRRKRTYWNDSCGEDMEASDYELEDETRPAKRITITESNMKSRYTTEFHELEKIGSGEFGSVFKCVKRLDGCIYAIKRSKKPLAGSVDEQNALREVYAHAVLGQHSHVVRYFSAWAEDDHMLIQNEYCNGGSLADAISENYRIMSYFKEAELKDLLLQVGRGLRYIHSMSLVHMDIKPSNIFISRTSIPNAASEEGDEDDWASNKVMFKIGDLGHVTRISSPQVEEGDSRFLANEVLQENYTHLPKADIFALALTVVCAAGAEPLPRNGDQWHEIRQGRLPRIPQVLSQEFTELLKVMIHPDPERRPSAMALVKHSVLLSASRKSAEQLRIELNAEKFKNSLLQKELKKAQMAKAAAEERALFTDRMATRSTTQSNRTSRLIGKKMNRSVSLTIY
T3 sequence (Q96SW2 whole entry): as the sequence (Q96SW2 whole entry) above
T3 sequence (Q16531 whole entry partner): as the sequence (Q16531 whole entry partner) above
T2 sequence (Q9HC35+Q9UM73 fused): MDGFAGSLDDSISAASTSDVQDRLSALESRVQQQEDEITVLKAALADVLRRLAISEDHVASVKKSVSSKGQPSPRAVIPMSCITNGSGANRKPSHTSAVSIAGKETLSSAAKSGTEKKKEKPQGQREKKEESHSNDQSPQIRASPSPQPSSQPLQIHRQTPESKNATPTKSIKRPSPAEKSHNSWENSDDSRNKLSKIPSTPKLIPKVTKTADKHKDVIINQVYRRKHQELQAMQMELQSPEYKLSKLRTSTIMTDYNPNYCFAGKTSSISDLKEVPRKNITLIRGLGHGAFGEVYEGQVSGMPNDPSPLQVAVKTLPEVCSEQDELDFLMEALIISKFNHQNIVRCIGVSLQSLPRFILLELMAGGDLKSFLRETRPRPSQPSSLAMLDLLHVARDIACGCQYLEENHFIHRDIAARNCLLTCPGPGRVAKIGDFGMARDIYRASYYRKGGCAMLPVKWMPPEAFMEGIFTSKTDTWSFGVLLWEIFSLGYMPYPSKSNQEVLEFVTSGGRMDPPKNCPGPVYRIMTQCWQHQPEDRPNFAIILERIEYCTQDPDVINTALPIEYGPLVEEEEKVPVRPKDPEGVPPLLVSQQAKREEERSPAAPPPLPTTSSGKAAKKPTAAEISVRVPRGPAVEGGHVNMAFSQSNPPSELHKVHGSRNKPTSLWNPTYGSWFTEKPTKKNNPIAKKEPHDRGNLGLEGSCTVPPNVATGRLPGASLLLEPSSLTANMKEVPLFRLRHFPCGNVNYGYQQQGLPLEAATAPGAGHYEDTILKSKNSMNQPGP
T2 sequence (Q96SW2 whole entry): as the sequence (Q96SW2 whole entry) above
T2 sequence (Q16531 whole entry partner): as the sequence (Q16531 whole entry partner) above
T4 sequence (Q13422 whole entry): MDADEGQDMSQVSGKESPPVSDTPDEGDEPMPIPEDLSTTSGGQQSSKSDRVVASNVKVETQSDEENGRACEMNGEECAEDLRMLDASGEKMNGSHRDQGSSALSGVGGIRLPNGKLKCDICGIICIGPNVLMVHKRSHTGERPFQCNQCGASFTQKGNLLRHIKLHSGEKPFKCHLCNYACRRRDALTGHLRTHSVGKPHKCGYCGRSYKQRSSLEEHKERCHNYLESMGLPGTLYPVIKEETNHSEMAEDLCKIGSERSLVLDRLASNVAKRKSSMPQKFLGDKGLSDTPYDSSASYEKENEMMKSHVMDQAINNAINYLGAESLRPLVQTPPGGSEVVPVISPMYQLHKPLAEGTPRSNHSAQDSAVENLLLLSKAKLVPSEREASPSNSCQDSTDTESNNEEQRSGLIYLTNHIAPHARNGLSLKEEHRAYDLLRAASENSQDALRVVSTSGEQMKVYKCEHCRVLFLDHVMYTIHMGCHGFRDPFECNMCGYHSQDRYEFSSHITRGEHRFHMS
T4 sequence (Q96SW2 whole entry): as the sequence (Q96SW2 whole entry) above
T4 sequence (Q16531 whole entry partner): as the sequence (Q16531 whole entry partner) above
T1 sequence (Q96SW2 whole entry): as the sequence (Q96SW2 whole entry) above

COc1cc(N2CCC(N(C)Cc3ccc(C4CCC(=O)NC4=O)cc3)CC2)ccc1Nc1ncc(Cl)c(Nc2ccccc2P(C)(C)=O)n1 (stereo not drawn) [GT-03603, 3-(4-(((1-(4-((5-chloro-4-((2-(dimethylphosphoryl)phenyl)amino)pyrimidin-2-yl)amino)-3-methoxyphenyl)piperidin-4-yl)(methyl)amino)methyl)phenyl)piperidine-2,6-dione]
IC50 (H2228): 50 to 100 nM | IC50 (H1975): 500 to 1000 nM | IC50 (SR): 1 to 10 nM | IC50 (MM.1S): 500 to 1000 nM | IC50 (MDA-MB-231; [2]): 500 to 1000 nM | inhibition at 0.5 µM [1]: 30 to 40% | inhibition at 2 µM [1]: 53 to 60% | Degradation of substrate protein ALK (substrate protein remaining %) (ALK): A (A is defined as 0% ≤ substrate protein remaining % ≤ 80%)

COc1cc(N2CCC(N(C)Cc3ccc(C4CCC(=O)NC4=O)c(F)c3)CC2)ccc1Nc1ncc(Cl)c(Nc2ccccc2P(C)(C)=O)n1 (stereo not drawn) [GT-03604, 3-(4-(((1-(4-((5-chloro-4-((2-(dimethylphosphoryl)phenyl)amino)pyrimidin-2-yl)amino)-3-methoxyphenyl)piperidin-4-yl)(methyl)amino)methyl)-2-fluorophenyl)piperidine-2,6-dione]
IC50 (H2228): 10 to 50 nM | IC50 (H1975): 100 to 500 nM | IC50 (SR): 1 to 10 nM | IC50 (MM.1S): 500 to 1000 nM | IC50 (MDA-MB-231; [2]): 100 to 500 nM | inhibition at 0.5 µM [1]: 20 to 30% | inhibition at 2 µM [1]: 53 to 60% | Degradation of substrate protein ALK (substrate protein remaining %) (ALK): A (A is defined as 0% ≤ substrate protein remaining % ≤ 80%)

O=C1CCN(c2cc(CCl)ccn2)C(=O)N1 [GT-07078, 1-(4-(Chloromethyl)pyridin-2-yl)dihydropyrimidine-2,4(1H,3H)-dione]
IC50 (MCF7; [3]): 1000 to 5000 nM | IC50 (MDA-MB-231; [4]): 1000 to 5000 nM | Degradation of substrate protein WEE1 (substrate protein remaining %) (WEE1): B (B is defined as substrate protein remaining % > 80%) | Degradation of substrate protein IKZF1 (substrate protein remaining %) (IKZF1): B (B is defined as substrate protein remaining % > 80%) | Degradation of substrate protein IKZF2 (substrate protein remaining %) (IKZF2): B (B is defined as substrate protein remaining % > 80%) | Degradation of substrate protein IKZF3 (substrate protein remaining %) (IKZF3): B (B is defined as substrate protein remaining % > 80%) | Degradation of substrate protein CKla (substrate protein remaining %) (CK1a): B (B is defined as substrate protein remaining % > 80%) | Degradation of substrate protein GSPT1 (substrate protein remaining %) (GSPT1): A (A is defined as 0% ≤ substrate protein remaining % ≤ 80%)

O=C1CCN(c2cc(CCl)c(F)cn2)C(=O)N1 [GT-07199, 1-(4-(Chloromethyl)-5-fluoropyridin-2-yl)dihydropyrimidine-2,4(1H,3H)-dione]
IC50 (MCF7; [3]): 1000 to 5000 nM | IC50 (MDA-MB-231; [4]): 1000 to 5000 nM | Degradation of substrate protein WEE1 (substrate protein remaining %) (WEE1): B (B is defined as substrate protein remaining % > 80%) | Degradation of substrate protein IKZF1 (substrate protein remaining %) (IKZF1): B (B is defined as substrate protein remaining % > 80%) | Degradation of substrate protein IKZF2 (substrate protein remaining %) (IKZF2): A (A is defined as 0% ≤ substrate protein remaining % ≤ 80%) | Degradation of substrate protein IKZF3 (substrate protein remaining %) (IKZF3): A (A is defined as 0% ≤ substrate protein remaining % ≤ 80%) | Degradation of substrate protein CKla (substrate protein remaining %) (CK1a): A (A is defined as 0% ≤ substrate protein remaining % ≤ 80%) | Degradation of substrate protein GSPT1 (substrate protein remaining %) (GSPT1): A (A is defined as 0% ≤ substrate protein remaining % ≤ 80%)

Cc1cc(Nc2ncc(Cl)c(Nc3ccccc3S(=O)(=O)C(C)C)n2)c(OC(C)C)cc1C1CCN(Cc2ccc(C3CCC(=O)NC3=O)cc2)CC1 (stereo not drawn) [GT-07364, 3-(4-((4-(4-((5-chloro-4-((2-(isopropylsulfonyl)phenyl)amino)pyrimidin-2-yl)amino)-5-isopropoxy-2-methylphenyl)piperidin-1-yl)methyl)phenyl)piperidine-2,6-dione]
IC50 (H2228): 100 to 500 nM | IC50 (MCF7; [5]): 100 to 500 nM | IC50 (SR): 10 to 50 nM | IC50 (MM.1S): 500 to 1000 nM | IC50 (MDA-MB-231; [2]): 500 to 1000 nM | Degradation of substrate protein ALK (substrate protein remaining %) (ALK): A (A is defined as 0% ≤ substrate protein remaining % ≤ 80%)

COc1cc(N2CCC(N3CCN(Cc4cc(N5CCC(=O)NC5=O)ncc4F)CC3)CC2)ccc1Nc1ncc(Cl)c(Nc2ccccc2P(C)(C)=O)n1 [GT-07608, 1-(4-((4-(1-(4-((5-chloro-4-((2-(dimethylphosphoryl)phenyl)amino)pyrimidin-2-yl)amino)-3-methoxyphenyl)piperidin-4-yl)piperazin-1-yl)methyl)-5-fluoropyridin-2-yl)dihydropyrimidine-2,4(1H,3H)-dione]
IC50 (H2228): 10 to 50 nM | IC50 (H1975): 100 to 500 nM | IC50 (MCF7; [5]): 100 to 500 nM | IC50 (SR): 1 to 10 nM | IC50 (MM.1S): 500 to 1000 nM | IC50 (MDA-MB-231; [2]): 100 to 500 nM | Degradation of substrate protein ALK (substrate protein remaining %) (ALK): A (A is defined as 0% ≤ substrate protein remaining % ≤ 80%)

COc1cc(N2CCC(N3CCN(Cc4ccnc(N5CCC(=O)NC5=O)c4)CC3)CC2)ccc1Nc1ncc(Cl)c(Nc2ccccc2P(C)(C)=O)n1 [GT-07609, 1-(4-((4-(1-(4-((5-chloro-4-((2-(dimethylphosphoryl)phenyl)amino)pyrimidin-2-yl)amino)-3-methoxyphenyl)piperidin-4-yl)piperazin-1-yl)methyl)pyridin-2-yl)dihydropyrimidine-2,4(1H,3H)-dione]
IC50 (H2228): 10 to 50 nM | IC50 (H1975): 100 to 500 nM | IC50 (MCF7; [5]): 100 to 500 nM | IC50 (SR): 1 to 10 nM | IC50 (MM.1S): 500 to 1000 nM | IC50 (MDA-MB-231; [2]): 500 to 1000 nM | Degradation of substrate protein ALK (substrate protein remaining %) (ALK): A (A is defined as 0% ≤ substrate protein remaining % ≤ 80%)

COc1cc(N2CCC(N(C)Cc3ccc(N4CCC(=O)NC4=O)cc3)CC2)ccc1Nc1ncc(Cl)c(Nc2ccccc2P(C)(C)=O)n1 [GT-07615, 1-(4-(((1-(4-((5-chloro-4-((2-(dimethylphosphoryl)phenyl)amino)pyrimidin-2-yl)amino)-3-methoxyphenyl)piperidin-4-yl)(methyl)amino)methyl)phenyl)dihydropyrimidine-2,4(1H,3H)-dione]
IC50 (H2228): 10 to 50 nM | IC50 (H1975): 100 to 500 nM | IC50 (MCF7; [5]): 100 to 500 nM | IC50 (SR): 1 to 10 nM | IC50 (MM.1S): 500 to 1000 nM | IC50 (MDA-MB-231; [2]): 100 to 500 nM | Degradation of substrate protein ALK (substrate protein remaining %) (ALK): A (A is defined as 0% ≤ substrate protein remaining % ≤ 80%)

O=C1CCN(c2cnc(CCl)cn2)C(=O)N1 [GT-07635, 1-(5-(Chloromethyl)pyrazin-2-yl)dihydropyrimidine-2,4(1H,3H)-dione]
IC50 (MDA-MB-231; [4]): 1000 to 5000 nM | Degradation of substrate protein WEE1 (substrate protein remaining %) (WEE1): A (A is defined as 0% ≤ substrate protein remaining % ≤ 80%) | Degradation of substrate protein IKZF1 (substrate protein remaining %) (IKZF1): A (A is defined as 0% ≤ substrate protein remaining % ≤ 80%) | Degradation of substrate protein IKZF2 (substrate protein remaining %) (IKZF2): A (A is defined as 0% ≤ substrate protein remaining % ≤ 80%) | Degradation of substrate protein IKZF3 (substrate protein remaining %) (IKZF3): A (A is defined as 0% ≤ substrate protein remaining % ≤ 80%) | Degradation of substrate protein CKla (substrate protein remaining %) (CK1a): A (A is defined as 0% ≤ substrate protein remaining % ≤ 80%) | Degradation of substrate protein GSPT1 (substrate protein remaining %) (GSPT1): B (B is defined as substrate protein remaining % > 80%)
